The numbers were not newly measured in patent US7993683B2, “Compositions for the treatment of chronic degenerative inflammatory conditions” (Indena S.p.A., priority 2006, dated 2011), which cites them from elsewhere.

Data set [1] concerns pro-inflammatory cytokines.
The test system of data set [2] is TNF-induced enhancement of endothelial monocyte adesion. The note with it: added to endothelial cell culture together with tumour necrosis factor (TNF).

As for `C=C1CC[C@@H]2[C@](C)(CO)[C@H](O)CC[C@@]2(C)[C@@H]1C/C=C1/C(=O)OC[C@H]1O` [andrographolide], in data set [1], the “synthesis of pro-inflammatory cytokines” value is reported as “inhibits”. Also, the “TNF-induced enhancement of endothelial monocyte adesion” value in data set [2] is recorded as “concentration depended reduction”.
